Test results taken from PubChem BioAssay AID328 (DTP/NCI, 2004).
Where “and” joins values, the source holds several entries; their conditions need not be identical. Equal values may be shown once. Inconclusive results and toxic doses are left out.

Test system: BDF1 mice, P388 leukemia ip, median survival T/C
Assay: NCI In Vivo Anticancer Drug Screen. Data for tumor model P388 Leukemia (intraperitoneal) in B6D2F1 (BDF1) mice
Details: endpoint: median survival time, higher = longer survival
Procedure, shortened: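 Vehicle-dosed animals serve as the reference; survival of compound-dosed, tumour-implanted mice is divided by it.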

[1] = dose: 100.0 mg/kg/injection, schedule: Q04DX003 (ip), vehicle: saline with Tween-80
[2] = dose: 100.0 mg/kg/injection, schedule: Q04DX003 (ip), vehicle: Klucel (hydroxypropylcellulose) (HPC)
[3] = dose: 200.0 mg/kg/injection, schedule: Q04DX003 (ip), vehicle: Klucel (hydroxypropylcellulose) (HPC)
[4] = dose: 400.0 mg/kg/injection, schedule: Q04DX003 (ip), vehicle: Klucel (hydroxypropylcellulose) (HPC)

CCN1/C(=C/C(C)=C/c2sc3ccccc3[n+]2CC)Sc2ccccc21
T/C (dose: 25.0 micrograms/kg/injection, schedule: Q01DX009 (ip), vehicle: Klucel (hydroxypropylcellulose) (HPC)): 116 % of control | T/C (dose: 50.0 micrograms/kg/injection, schedule: Q01DX009 (ip), vehicle: Klucel (hydroxypropylcellulose) (HPC)): 109 % of control and 120 % of control | T/C (dose: 100.0 micrograms/kg/injection, schedule: Q01DX009 (ip), vehicle: Klucel (hydroxypropylcellulose) (HPC)): 106 % of control and 108 % of control | T/C (dose: 200.0 micrograms/kg/injection, schedule: Q01DX009 (ip), vehicle: Klucel (hydroxypropylcellulose) (HPC)): 97 % of control | T/C (dose: 400.0 micrograms/kg/injection, schedule: Q01DX009 (ip), vehicle: Klucel (hydroxypropylcellulose) (HPC)): 106 % of control

C=CC(=O)NCCC(=O)O
T/C (dose: 50.0 mg/kg/injection, schedule: Q01DX009 (ip), vehicle: saline): 100 % of control | T/C (dose: 100.0 mg/kg/injection, schedule: Q01DX009 (ip), vehicle: saline): 90 % of control | T/C (dose: 200.0 mg/kg/injection, schedule: Q01DX009 (ip), vehicle: saline): 94 % of control

NC(=O)c1nn(C2OC(CO)C(O)C2O)c2ncnc(N)c12 (configuration not stated)
T/C (dose: 12.5 mg/kg/injection, schedule: Q01DX009 (ip), vehicle: Klucel (hydroxypropylcellulose) (HPC)): 118 % of control

CCCCCCCCC(=O)N(C)OC
T/C (dose: 25.0 mg/kg/injection, schedule: Q04DX003 (ip), vehicle: saline with Tween-80): 104 % of control | T/C (dose: 50.0 mg/kg/injection, schedule: Q04DX003 (ip), vehicle: saline with Tween-80): 100 % of control | T/C [1]: 100 % of control

Cc1ccc(C)c(OS(=O)(=O)c2ccc([N+](=O)[O-])cc2)c1
T/C (dose: 100.0 mg/kg/injection, schedule: Q01DX001 (ip), vehicle: saline sonified): 100 % of control | T/C (dose: 200.0 mg/kg/injection, schedule: Q01DX001 (ip), vehicle: saline sonified): 104 % of control | T/C (dose: 400.0 mg/kg/injection, schedule: Q01DX001 (ip), vehicle: saline sonified): 90 % of control

CC1OC(OC2CC(O)(C(=O)CO)Cc3c(O)c4c(c(O)c32)C(=O)c2ccccc2C4=O)CC(N)C1O (configuration not stated)
T/C (dose: 216.0 micrograms/kg/injection, schedule: Q04DX003 (ip), vehicle: water): 155 % of control | T/C (dose: 360.0 micrograms/kg/injection, schedule: Q04DX003 (ip), vehicle: water): 163 % of control | T/C (dose: 600.0 micrograms/kg/injection, schedule: Q04DX003 (ip), vehicle: water): 166 % of control

CC(=O)OCC(COC(C)=O)=C1N=C(c2ccccc2)OC1=O
T/C (dose: 50.0 mg/kg/injection, schedule: Q01DX009 (ip), vehicle: saline with Tween-80): 107 % of control | T/C (dose: 100.0 mg/kg/injection, schedule: Q01DX009 (ip), vehicle: saline with Tween-80): 96 % of control | T/C [1]: 118 % of control | T/C (dose: 200.0 mg/kg/injection, schedule: Q01DX009 (ip), vehicle: saline with Tween-80): 115 % of control | T/C (dose: 400.0 mg/kg/injection, schedule: Q04DX003 (ip), vehicle: saline with Tween-80): 118 % of control

CCCCCCCCCCCCCCCCS(=O)(=O)CCO
T/C [1]: 104 % of control | T/C (dose: 200.0 mg/kg/injection, schedule: Q04DX003 (ip), vehicle: saline with Tween-80): 91 % of control

COc1cccc2c1C(=O)c1c(O)c3c(c(O)c1C2=O)CC(O)(/C(C)=N/NC(=O)CCCCCCC(=O)N/N=C(\C)C1(O)Cc2c(O)c4c(c(O)c2C(OC2CC(N)C(O)C(C)O2)C1)C(=O)c1c(OC)cccc1C4=O)CC3OC1CC(N)C(O)C(C)O1 (configuration not stated)
T/C (dose: 2.0 mg/kg/injection, schedule: Q01DX009 (ip), vehicle: water): 165 % of control | T/C (dose: 4.0 mg/kg/injection, schedule: Q01DX009 (ip), vehicle: water): 201 % of control

CC(C)(C)OC(=O)NNC(c1ccccc1)c1ccccc1
T/C (dose: 50.0 mg/kg/injection, schedule: Q01DX001 (ip), vehicle: Klucel (hydroxypropylcellulose) (HPC)): 91 % of control | T/C (dose: 50.0 mg/kg/injection, schedule: Q01DX009 (ip), vehicle: other): 105 % of control | T/C (dose: 100.0 mg/kg/injection, schedule: Q01DX001 (ip), vehicle: Klucel (hydroxypropylcellulose) (HPC)): 91 % of control | T/C (dose: 100.0 mg/kg/injection, schedule: Q01DX009 (ip), vehicle: other): 110 % of control | T/C [2]: 105 % of control | T/C (dose: 200.0 mg/kg/injection, schedule: Q01DX001 (ip), vehicle: Klucel (hydroxypropylcellulose) (HPC)): 95 % of control | T/C (dose: 200.0 mg/kg/injection, schedule: Q01DX009 (ip), vehicle: other): 100 % of control | T/C [3]: 110 % of control | T/C [4]: 105 % of control

CCN1C(=O)CSC1=S
T/C (dose: 62.5 mg/kg/injection, schedule: Q01DX010 (ip), vehicle: saline): 109 % of control | T/C (dose: 125.0 mg/kg/injection, schedule: Q01DX010 (ip), vehicle: saline): 109 % of control | T/C (dose: 250.0 mg/kg/injection, schedule: Q01DX010 (ip), vehicle: saline): 90 % of control

CCC(C)C1NC(=O)C(NC(=O)c2c3nc4c(C(=O)NC5C(=O)NC(C(C)CC)C(=O)N6CCCC6C(=O)N(C)CC(=O)N(C)C(C(C)C)C(=O)OC5C)cc(N)c(C)c4oc-3c(C)c(=O)c2N)C(C)OC(=O)C(C(C)C)N(C)C(=O)CN(C)C(=O)C2CCCN2C1=O (configuration not stated)
T/C (dose: 0.15 mg/kg/injection, schedule: Q04DX003 (ip), vehicle: saline + alcohol): 206 % of control | T/C (dose: 0.3 mg/kg/injection, schedule: Q04DX003 (ip), vehicle: saline + alcohol): 227 % of control | T/C (dose: 0.6 mg/kg/injection, schedule: Q04DX003 (ip), vehicle: saline + alcohol): 255 % of control and 312 % of control | T/C (dose: 1.2 mg/kg/injection, schedule: Q04DX003 (ip), vehicle: saline + alcohol): 197 % of control | T/C (dose: 25.0 micrograms/kg/injection, schedule: Q01DX009 (ip), vehicle: saline + alcohol): 190 % of control | T/C (dose: 50.0 micrograms/kg/injection, schedule: Q01DX009 (ip), vehicle: saline + alcohol): 236 % of control | T/C (dose: 100.0 micrograms/kg/injection, schedule: Q01DX009 (ip), vehicle: saline + alcohol): 232 % of control | T/C (dose: 200.0 micrograms/kg/injection, schedule: Q01DX009 (ip), vehicle: saline + alcohol): 291 % of control | T/C (dose: 400.0 micrograms/kg/injection, schedule: Q01DX009 (ip), vehicle: saline + alcohol): 86 % of control

C/C=C(\C)C(=O)OCC1CC[N+](C)([O-])C1 (configuration not stated)
T/C (dose: 50.0 mg/kg/injection, schedule: Q01DX009 (ip), vehicle: water): 103 % of control | T/C (dose: 100.0 mg/kg/injection, schedule: Q01DX009 (ip), vehicle: water): 100 % of control | T/C (dose: 200.0 mg/kg/injection, schedule: Q01DX009 (ip), vehicle: water): 103 % of control | T/C (dose: 400.0 mg/kg/injection, schedule: Q01DX009 (ip), vehicle: water): 119 % of control

O=C(O)/C=C/c1cc2c(cc1[N+](=O)[O-])OCO2
T/C (dose: 100.0 mg/kg/injection, schedule: Q01DX009 (ip), vehicle: Klucel (hydroxypropylcellulose) (HPC)): 88 % of control | T/C [2]: 91 % of control | T/C (dose: 200.0 mg/kg/injection, schedule: Q01DX009 (ip), vehicle: Klucel (hydroxypropylcellulose) (HPC)): 96 % of control | T/C [3]: 95 % of control | T/C [4]: 87 % of control
